Data from US20190307713A1, “COMBINATIONS OF DICLOFENAC AND H2 RECEPTOR ANTAGONISTS FOR THE TREATMENT OF PAIN AND INFLAMMATION” (priority 2016, published 2019).

What was measured:
in vivo = details: male, Wistar, rat, po
Protocol: Male Wistar rats (240-260 g) were maintained in an air conditioned quarters at a temperature of 22±2° C. and a relative humidity of 50±10%. Food and water were allowed ad libitum. The animals were acclimatized to the facilities for five days, and then fasted with free access to water for 12 h prior to the experiment. All these animals were housed under similar conditions.
Blood (0.2 ml) was taken from the tail vein prior to administration of test substances (0 h) and blood was taken after 0.083, 0.167, 0.25, 0.5, 1, 2, 4, 8 and 12 h respectively.
Blood samples were collected in tubes containing %5 Nat-EDTA and kept on ice until dichloromethane was added and they were centrifuged at 7000×g for 5 min at 4° C. and supernatants were collected for HPLC analysis.

[1] = system: Caco-2 intestinal permeability model; experiment: Caco-2 permeability study of diclofenac potassium and famotidine separately and in combination; format: in vitro ADME; details: Caco-2, 50 μg/ml diclofenac potassium (20 μg/ml famotidine in combination)
Protocol: The permeability study designed using Caco-2 intestinal permeability model was prepared by using Millipore 96 well insert plate as 10,000 cells/well on Feb. 21, 2017 and placed in an incubator. Tests on integrity, viability and permeability were performed on Mar. 15, 2017. Viability results were obtained by MTT and integrity results were obtained using Lucifer yellow and the plate was determined to be eligible for permeability study. […] Methanol was used as solvent for the samples and the samples were analyzed in LC/MSMS 8040 analyzer using mobile phase, Methanol+bidistillated water+Ammonium formate.

[2] = oral, instant or immediate release formulations; cited from earlier work

Cmax (in vivo) [ng/mL]	Tmax (in vivo) [min]	Permeability percentage of Diclofenac potassium ([1]; 1 hour) [%]	Permeability percentage of Diclofenac potassium ([1]; 1.5 hours) [%]	Permeability percentage of Diclofenac potassium ([1]; 2 hours) [%]	Permeability percentage of Diclofenac potassium ([1]; 4 hours) [%]	Permeability percentage of Diclofenac potassium ([1]; 8 hours) [%]	SMILES	Tmax (time to the maximum plasma concentration) [2]
1.24	15	76.93	80.76	81.80	82.22	86.32	O=C(O)Cc1ccccc1Nc1c(Cl)cccc1Cl [Diclofenac potassium, 2-[2-(2,6-dichloroanilino)phenyl]acetic acid]	–
–	–	–	–	–	–	–	O=C(O)Cc1ccccc1Nc1c(Cl)cccc1Cl [diclofenac, 2-[2-(2,6-dichloroanilino)phenyl]acetic acid]	about 1 hour
